Test results from patent US20150231198A1 (priority 2014, published 2015).

Assays:
HD-MAR2 = assay: cells; format: cell-based; conditions: 48 h, read-out: IC50 (concentration that inhibits viability by 50%)
[1] = test system: protein, primarily albumin; conditions: cited from earlier work
Sup-T1 = assay: cells; format: cell-based; conditions: Homo sapiens, SUP-T1, 48 h, read-out: IC50 (concentration that inhibits viability by 50%)
Karpas 299 = assay: cells; format: cell-based; conditions: Homo sapiens, KARPAS-299, 48 h, read-out: IC50 (concentration that inhibits viability by 50%)
HH = assay: cells; format: cell-based
[2] = test system: Primary GFP+ cells from the Itk-Syk transgenic mouse model; assay: Apoptosis and synergy in primary GFP+ cells from Itk-Syk transgenic mouse; format: cell-based; conditions: 48 hours
Karpas 299 cell line = assay: Flow cytometry apoptosis (Annexin V-FITC/PI), Karpas 299; format: cell-based
[3] = in vivo; cited from earlier work
[4] = after intravenous infusion; cited from earlier work
SUP-T1 cells = assay: Flow cytometry apoptosis (Annexin V-FITC/PI), SUP-T1; format: cell-based; conditions: 48 hours
Jurkat = assay: cells; format: cell-based; conditions: Homo sapiens, 48 h, read-out: IC50 (concentration that inhibits viability by 50%)
[5] = water; cited from earlier work

Row | Structure (SMILES) | IC50 (HD-MAR2) [nM] | drug bound to protein [1] | IC50 (Sup-T1) [nM] | IC50 (Karpas 299) [nM] | growth inhibition (sensitivity of cell line) (HH; concentrations as high as 30 μM, 48 hours of exposure) | apoptosis induced, % of the cells ([2]; bendamustine alone) [%] | apoptotic cells (Karpas 299 cell line; Karpas 299, bendamustine at 10 μM (IC50-60)) [%] | incidence of hair loss (alopecia) [3] | half-life (first phase of biphasic elimination) [4] [min] | terminal half-life [4] | apoptosis induced, % cells (SUP-T1 cells; SUP-T1, bendamustine alone) [%] | IC50 (Jurkat) [nM] | solubility [5] | IC50 (HH; Homo sapiens, 48 h, read-out: IC50 (concentration that inhibits viability by 50%)) [nM] | apoptosis induced, % of the cells ([2]; romidepsin alone) [%] | apoptosis induced, % of the cell population (Karpas 299 cell line; Karpas 299, romidepsin alone at 1 nM) | apoptosis induced, % cells (SUP-T1 cells; SUP-T1, romidepsin alone) [%]
1 | Cn1c(CCCC(=O)O)nc2cc(N(CCCl)CCCl)ccc21 [bendamustine] | 9330 | More than 95% | 8880 | 32000 | resistant | 72 | 35 | low incidence | 6 to 10 | approximately 30 minutes | 50 | 17800 | water soluble | – | – | – | –
2 | C/C=C1\NC(=O)[C@H]2CSSCC/C=C/[C@H](CC(=O)N[C@H](C(C)C)C(=O)N2)OC(=O)[C@H](C(C)C)NC1=O [romidepsin, (1S,4S,7Z,10S,16E,21R)-7-ethyl idene-4,21-bis(1-methylethyl)-2-oxa-12,13-dithia-5,8,20,23-tetrazabicyclo[8.7.6]tricos-16-ene-3,6,9,19,22-pentone] | 0.33 | – | 0.94 | 0.56 | – | – | – | – | – | – | – | 0.46 | – | 1.68 | 60 | up to 40% | 31
